From patent US6521215B2, “Compositions and methods for tooth treatment” (priority 1999, dated 2003)
Blank lines part the entries; values can stand above or below the molecule they belong to.

Assays:
[1] = Attin et al., 1997, cited from earlier work
[2] = enamel exposed to 10% carbamide peroxide; McCracken and Haywood, 1996; cited from earlier work
[3] = scanning electron microscope, 5000× magnification
[4] = Protease enhanced tooth whitening, shade comparison of left and right halves of the enamel surface in vitro; parameters: species or system human; conditions: protease slurry (papain in distilled water) alone vs untreated half of tooth
Protocol: In this experiment, specimens were prepared in vitro by dividing the enamel surface of the teeth into left and right halves with a visible light cured polymer. This allowed a shade comparison of one side to the other. Specimens were divided into two groups. In both groups, one side of the teeth received an application of protease. Protease slurry was prepared by mixing papain (papaya, crude, Type III) with distilled water and applied via a syringe tip applicator. One group of specimens was then immersed in 30% hydrogen peroxide solution. The other group received no further treatment. Thus, in the first group, one-half of the tooth was first treated with papain and then with hydrogen peroxide, and the second half of the tooth was treated with only hydrogen peroxide. In the other group, one-half of the tooth was treated with papain and the second half of the tooth was untreated.

Molecule: NC(N)=O.OO [carbamide peroxide]
- enamel microhardness ([1]; 10% carbamide peroxide (Opalescence®)): significantly decreased
- amount of calcium lost from enamel (average) [2]: 1.06 micrograms/mm^2

Molecule: F [fluoride]
- hardness of bleached enamel specimens after application ([1]; high concentration fluoride application): restore hardness

- microscopic pitting of the enamel surface [3]: not seen
Molecule: OO [hydrogen peroxide]

B1: papain (protein, UniProt P00784 134-345, looked up)
Papain: IPEYVDWRQKGAVTPVKNQGSCGSCWAFSAVVTIEGIIKIRTGNLNEYSEQELLDCDRRSYGCNGGYPWSALQLVAQYGIHYRNTYPYEGVQRYCRSREKGPYAAKTDGVRQVQPYNEGALLYSIANQPVSVVLEAAGKDFQLYRGGIFVGPCGNKVDHAVAAVGYGPNYILIKNSWGTGWGENGYIRIKRGTGNSYGVCGLYTSSFYPVKN
modifications: crude preparation
notes: Protease slurry prepared by mixing papain (papaya, crude, Type III) with distilled water
- whitening effect (change in shade) of treated tooth side [4]: will remove stains and “whiten” a tooth
